Measured values from patent publication US12612412B2, “Antiviral heterocyclic compounds” (Enanta Pharmaceuticals, Inc., priority 2021, dated 2026).
Where two headings read alike, the source gives them in different places.

Assays:
[1] = tested on: genotype A, "Long" strain RSV; test: RSV-A assay (CPE protection in Hep-2 cells, ATPlite readout); format: cell-based, Human respiratory syncytial virus (HRSV); conditions: genotype A “Long” strain RSV, MOI 0.1, CPE protection, read-out: Human RSV-A (“Long”)
How it was run: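 Hep-2, 8,000 cells/well, MOI 0.1 (PFU- or TCID50-based); 2-fold compound series, duplicates; 5 d incubation; ATPlite luminescence readout; EC50.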

[2] = tested on: recombinant HMPV CAN97-83 containing eGFP (MPV-GFP1); test: HMPV antiviral assay Method-A (MPV-GFP1 eGFP fluorescence in Vero E6 cells); format: cell-based, Human metapneumovirus (HMPV); conditions: read-out: HMPV EC50
Protocol: HMPV antiviral activity was evaluated using a recombinant version of HMPV CAN97-83 engineered to contain the coding sequence for enhanced green fluorescence protein (eGFP) in the 3′ end of the virus genome (MPV-GFP1, ViraTree). Vero E6 cells ([…]) were seeded at a density of 12,000 cells/100 μL/well into 96-well cell plates one day prior to the assay. On the day of screening, the cell culture medium was aspirated from the wells and cells were washed twice with serum-free Eagle's Modified Essential Medium (EMEM, ATCC #) containing 1% penicillin-streptomycin (Invitrogen) (SF-EMEM). Cell washes were performed by dispensing 100 μL SF-EMEM per well and immediately aspirating the wash medium from the well. Following the second wash step, serum-free OptiMEM (Invitrogen, Cat No.) (SF-OptiMEM) containing 0.5 μg/mL TPCK-Trypsin (VENDOR) and 1% penicillin-streptomycin was added to the cells at 50 μL/well. Compounds were added into the 96-well plates using a JANUS automated liquid handling system (VENDOR). Compounds were initially diluted 1:50 into an intermediate 96-well plate containing SF-OptiMEM prior to transfer to the assay plate (25 μL/well). Each of the test compounds were tested in duplicate wells at final concentrations starting from 8 μM or 2 μM using ½ stepwise dilutions for a total of 8 points. Virus infection was performed by preparing a working stock of MPV-GFP1 at a multiplicity of infection (MOI) equal to 0.05/25 μL and aliquoting 25 μL of virus inoculum to the compound and positive control wells. SF-OptiMEM was added (25 μL/well) to the appropriate wells to serve as a virus-free negative control for the assay. The final DMSO concentration of all wells is 0.5%. Plates were incubated at 32° C., 5% CO2 for 5 days.
After 5 days incubation, eGFP fluorescence intensity was measured at (X) […] wavelength using a Spectramax i3× plate reader (VENDOR). Percent viral inhibition was calculated using the following equation: y=[…]
Where XQ is the fluorescence intensity measured in a well containing recombinant MPV-GFP1-infected, compound-treated cells and XP is the average fluorescence intensity measured in the wells containing untreated cells infected with recombinant virus. EC50 values were then calculated by non-linear regression using a four parameter curve logistic equation. The curve fit model employed was XLFit Dose Response One Site Model 200: y=(A+(B/(1+((x/C)^D))))
Where A is the minimum y value, B is the maximum y value, C is the log EC50 value, and D is the slope factor. […] EC50 ranges are as follows: A<0.5 μM; B>0.5 μM.

[3] = human respiratory syncytial virus
[4] = human metapneumovirus, Vero C1008, 120 h

| SMILES | EC50 [1, 3] [nM] | EC50 [2, 4] [nM] | EC50 [1] [nM] | EC50 ([2]; Method-A, MPV-GFP1 in Vero E6 cells, eGFP fluorescence after 5 days) [nM] |
| --- | --- | --- | --- | --- |
| C[C@]1(C(N)=O)COc2c1cc([C@@](O)(CNC(=O)c1cc(F)c3nc(C4CC4)cn3c1)C(F)(F)F)nc2-c1ccc(F)c(Cl)c1 [Example 58] | < 200 | < 500 |  |  |
| COc1cc(C(=O)NC[C@](O)(c2cc3c(c(-c4ccc(F)c(Cl)c4)n2)OC[C@]3(C)C(N)=O)C(F)(F)F)cn2cc(C3CC3)nc12 [Example 59] | < 200 | < 500 |  |  |
| C[C@]1(C(N)=O)COc2c1cc([C@@](O)(CNC(=O)c1ccc3nc(C4CC4)cn3c1)C(F)(F)F)nc2-c1ccc(F)c(Cl)c1 [Example 60] | < 200 | < 500 |  |  |
| COc1cc(C(=O)NC[C@](O)(c2cc3c(c(-c4ccc(F)cc4)n2)OC[C@]3(C)C(N)=O)C(F)(F)F)cn2cc(CF)nc12 [Example 62] | < 200 | > 500 |  |  |
| C[C@]1(C(N)=O)COc2c1cc([C@@](O)(CNC(=O)c1cc(F)c3nc(CF)cn3c1)C(F)(F)F)nc2-c1ccc(F)cc1 [Example 63] | < 200 | > 500 |  |  |
| COc1cc(C(=O)NC[C@](O)(c2cc3c(c(-c4ccc(F)cc4)n2)OC[C@]3(C)C(N)=O)C(F)(F)F)cn2cc(C(F)F)nc12 [Example 64] | < 200 | > 500 |  |  |
| COc1cc(C(=O)NC[C@](O)(c2cc3c(c(-c4ccc(F)c(Cl)c4)n2)OC[C@]3(C)C(N)=O)C(F)(F)F)cn2cc(C(F)F)nc12 [Example 65] | < 200 | > 500 |  |  |
| CC1(C(N)=O)COc2c1cc(C(O)(CNC(=O)c1cc(OCC(F)F)n3nc(C4CC4)cc3c1)C(F)(F)F)nc2-c1ccc(F)cc1 (stereo not drawn) [Example 68] |  |  | < 200 | < 500 |
| Cc1cnc2c(Cl)cc(C(=O)NC[C@](O)(c3cc4c(c(-c5ccc(F)cc5)n3)OC[C@]4(C)C(N)=O)C(F)(F)F)cc2c1 [Example 70] | < 200 | < 500 |  |  |
| C[C@]1(C(N)=O)COc2c1cc([C@@](O)(CNC(=O)c1cc(Cl)c3ncc(C4CC4)cc3c1)C(F)(F)F)nc2-c1ccc(F)cc1 [Example 72] | < 200 | < 500 |  |  |
| C[C@]1(C(N)=O)COc2c1cc([C@@](O)(CNC(=O)c1cc(Cl)c3ncc(C(F)(F)F)cc3c1)C(F)(F)F)nc2-c1ccc(F)cc1 [Example 73] | < 200 | < 500 |  |  |
| Cc1cc2cc(C(=O)NC[C@](O)(c3cc4c(c(-c5ccc(F)cc5)n3)OC[C@]4(C)C(N)=O)C(F)(F)F)cc(O)c2nc1C [Example 74] | < 200 | < 500 |  |  |
| COc1cc(C(=O)NC[C@](O)(c2cc3c(c(-c4ccc(F)cc4)n2)OC[C@]3(C)C(N)=O)C(F)(F)F)cc2cc(CO)c(C)nc12 [Example 75] | < 200 | > 500 |  |  |
| Cc1nc2c(Cl)cc(C(=O)NC[C@](O)(c3cc4c(c(-c5ccc(F)cc5)n3)OC[C@]4(C)C(N)=O)C(F)(F)F)cc2s1 [Example 77] | < 200 | < 500 |  |  |
| COc1cc(C(=O)NC[C@](O)(c2cc3c(c(-c4ccc(F)cc4)n2)OC[C@]3(C)C(N)=O)C(F)(F)F)cc2cc(C3CC3)c(C)nc12 [Example 78] | < 200 | > 500 |  |  |
| Cc1nc2c(OC3CC3)cc(C(=O)NC[C@](O)(c3cc4c(c(-c5ccc(F)cc5)n3)OC[C@]4(C)C(N)=O)C(F)(F)F)cc2s1 [Example 80] | < 200 | < 500 |  |  |
| COc1cc(C(=O)NC[C@](O)(c2cc3c(c(-c4ccc(F)cc4)n2)OC[C@]3(C)C(N)=O)C(F)(F)F)cc2cc(C3CC3)nnc12 [Example 81] | < 200 | > 500 |  |  |
| COc1cc(C(=O)NC[C@](O)(c2cc3c(c(-c4ccc(F)cc4)n2)OC[C@]3(C)C(N)=O)C(F)(F)F)cc2cc(Cl)c(C)nc12 [Example 82] | < 200 | < 500 |  |  |

| SMILES | EC50 [1, 3] [nM] | EC50 [2, 4] [nM] | EC50 [1] [nM] | EC50 ([2]; Method-A, MPV-GFP1 in Vero E6 cells, eGFP fluorescence after 5 days) [nM] |
| --- | --- | --- | --- | --- |
| COc1cc(C(=O)NC[C@](O)(c2cc3c(c(-c4ccc(F)cc4)n2)OC[C@]3(C)C(N)=O)C(F)(F)F)cc2cc(C(F)(F)F)c(C)nc12 [Example 83] | < 200 | < 500 |  |  |
| C[C@]1(C(N)=O)COc2c1cc([C@@](O)(CNC(=O)c1cc(Cl)c3nn(C4CC4)cc3c1)C(F)(F)F)nc2-c1ccc(F)cc1 [Example 84] | < 200 | < 500 |  |  |
| C[C@]1(C(N)=O)COc2c1cc([C@@](O)(CNC(=O)c1cc(Cl)c3nn(C4CC4)cc3c1)C(F)(F)F)nc2-c1ccc(F)c(Cl)c1 [Example 85] | < 200 | < 500 |  |  |
| COc1cc(C(=O)NC[C@](O)(c2cc3c(c(-c4ccc(F)c(Cl)c4)n2)OC[C@]3(C)C(N)=O)C(F)(F)F)cc2cc(C3CC3)nnc12 [Example 86] | < 200 | < 500 |  |  |
| C[C@]1(C(N)=O)COc2c1cc([C@@](O)(CNC(=O)c1cc(Cl)c3nc(N)oc3c1)C(F)(F)F)nc2-c1ccc(F)cc1 [Example 91] | < 200 | > 500 |  |  |
| COc1cc(C(=O)NC[C@](O)(c2cc3c(c(-c4ccc(F)cc4)n2)OC[C@]3(C)C(N)=O)C(F)(F)F)cc2cc(C3CC3)nn12 [Example 92] | < 200 | < 500 |  |  |
| C[C@]1(C(N)=O)COc2c1cc([C@@](O)(CNC(=O)c1cc(Cl)c3[nH]c(C4CC4)nc3c1)C(F)(F)F)nc2-c1ccc(F)cc1 [Example 94] | < 200 | > 500 |  |  |
| COc1cc(C(=O)NC[C@](O)(c2cc3c(c(-c4ccc(F)cc4)n2)OC[C@]3(C)C(N)=O)C(F)(F)F)cc2nc(C3CC3)[nH]c12 [Example 95] | < 200 | > 500 |  |  |
| C[C@]1(C(N)=O)COc2c1cc([C@@](O)(CNC(=O)c1cc(OC3CC3)c3nc(C4CC4)sc3c1)C(F)(F)F)nc2-c1ccc(F)cc1 [Example 96] | < 200 | < 500 |  |  |
| Cc1nc2c(OC(F)(F)F)cc(C(=O)NC[C@](O)(c3cc4c(c(-c5ccc(F)cc5)n3)OC[C@]4(C)C(N)=O)C(F)(F)F)cc2s1 [Example 97] | < 200 | > 500 |  |  |
| Cc1n[nH]c2ccc(C(=O)NC[C@](O)(c3cc4c(c(-c5ccc(F)cc5)n3)OC[C@]4(C)C(N)=O)C(F)(F)F)cc12 [Example 100] | < 200 | > 500 |  |  |
| CCc1cc(C(=O)NC[C@](O)(c2cc3c(c(-c4ccc(F)cc4)n2)OC[C@]3(C)C(N)=O)C(F)(F)F)cc2cn[nH]c12 [Example 102] | < 200 | < 500 |  |  |
| C[C@]1(C(N)=O)COc2c1cc([C@@](O)(CNC(=O)c1cc(Cl)c3[nH]ncc3c1)C(F)(F)F)nc2-c1ccc(F)cc1 [Example 103] | < 200 | < 500 |  |  |
| C[C@]1(C(N)=O)COc2c1cc([C@@](O)(CNC(=O)c1cc(C(F)(F)F)c3[nH]ncc3c1)C(F)(F)F)nc2-c1ccc(F)cc1 [Example 105] | < 200 | > 500 |  |  |
| COc1cc(C(=O)NC[C@](O)(c2cc3c(c(-c4ccc(F)cc4)n2)OC[C@]3(C)C(N)=O)C(F)(F)F)cc2cn[nH]c12 [Example 108] | < 200 | > 500 |  |  |
| COc1ccc(C(=O)NC[C@](O)(c2cc3c(c(-c4ccc(F)cc4)n2)OC[C@]3(C)C(N)=O)C(F)(F)F)cc1Nc1nccnn1 [Example 112] | < 200 | > 500 |  |  |
| Cc1cnc2c(Nc3ccc(C)nn3)cc(C(=O)NC[C@](O)(c3cc4c(c(-c5ccc(F)cc5)n3)OC[C@]4(C)C(N)=O)C(F)(F)F)cc2c1 [Example 113] | < 200 | < 500 |  |  |
| Cc1cnc2c(Nc3ccc(C4CC4)nn3)cc(C(=O)NC[C@](O)(c3cc4c(c(-c5ccc(F)cc5)n3)OC[C@]4(C)C(N)=O)C(F)(F)F)cc2c1 [Example 114] | < 200 | < 500 |  |  |
